From patent US8785477B2, “Hexahydropyrrolo[3,4-b]pyrrole derivatives, preparation methods and pharmaceutical uses thereof” (Shanghai Sun-Sail Pharmaceutical Science & Technology Co., …, priority 2010, dated 2014)
Where a name gives a salt, the structure may show the parent alone. Read-outs that look alike come from different tables or passages of the source.

Experiments:
FAP = FAP (Homo sapiens (Human), UniProt Q12884); test: Selectivity panel, recombinant dipeptidase inhibition (fluorescence substrate): FAP; format: biochemical
Sequence of FAP (Q12884 whole entry): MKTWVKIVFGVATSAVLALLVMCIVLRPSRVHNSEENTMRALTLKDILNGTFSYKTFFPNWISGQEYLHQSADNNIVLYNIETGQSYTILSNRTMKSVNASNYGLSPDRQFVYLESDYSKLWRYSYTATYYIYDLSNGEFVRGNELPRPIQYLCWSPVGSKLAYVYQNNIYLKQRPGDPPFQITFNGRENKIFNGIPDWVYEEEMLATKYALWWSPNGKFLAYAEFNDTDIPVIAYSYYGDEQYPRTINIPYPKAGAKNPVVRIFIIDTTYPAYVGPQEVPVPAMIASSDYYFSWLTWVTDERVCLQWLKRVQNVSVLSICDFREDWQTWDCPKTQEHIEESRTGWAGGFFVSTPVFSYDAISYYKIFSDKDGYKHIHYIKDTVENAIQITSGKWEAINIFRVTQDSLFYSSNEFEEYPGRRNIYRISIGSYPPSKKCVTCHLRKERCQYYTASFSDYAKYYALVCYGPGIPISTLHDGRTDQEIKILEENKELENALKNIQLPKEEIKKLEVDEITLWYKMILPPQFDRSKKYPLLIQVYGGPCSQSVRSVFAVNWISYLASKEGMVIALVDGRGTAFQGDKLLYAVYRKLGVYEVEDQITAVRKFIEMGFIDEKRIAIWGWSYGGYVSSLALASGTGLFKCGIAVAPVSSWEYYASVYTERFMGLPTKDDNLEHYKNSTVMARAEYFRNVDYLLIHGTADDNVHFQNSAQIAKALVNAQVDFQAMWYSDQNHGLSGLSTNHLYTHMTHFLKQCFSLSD
Source text: (§1) The recombinant proteins of DPPIV, DPP8, DPP9 and FAP were expressed by using insect expression system (purchased from Shanghai Jinmai Biotechnology Co. Ltd). The activities of these […] were detected by using fluorescence substrate.

DPPIV [1] = biological target: T1, DPPIV (Homo sapiens (Human), UniProt P27487); test: Selectivity panel, recombinant dipeptidase inhibition (fluorescence substrate): DPPIV; format: biochemical
T1 sequence (P27487 whole entry): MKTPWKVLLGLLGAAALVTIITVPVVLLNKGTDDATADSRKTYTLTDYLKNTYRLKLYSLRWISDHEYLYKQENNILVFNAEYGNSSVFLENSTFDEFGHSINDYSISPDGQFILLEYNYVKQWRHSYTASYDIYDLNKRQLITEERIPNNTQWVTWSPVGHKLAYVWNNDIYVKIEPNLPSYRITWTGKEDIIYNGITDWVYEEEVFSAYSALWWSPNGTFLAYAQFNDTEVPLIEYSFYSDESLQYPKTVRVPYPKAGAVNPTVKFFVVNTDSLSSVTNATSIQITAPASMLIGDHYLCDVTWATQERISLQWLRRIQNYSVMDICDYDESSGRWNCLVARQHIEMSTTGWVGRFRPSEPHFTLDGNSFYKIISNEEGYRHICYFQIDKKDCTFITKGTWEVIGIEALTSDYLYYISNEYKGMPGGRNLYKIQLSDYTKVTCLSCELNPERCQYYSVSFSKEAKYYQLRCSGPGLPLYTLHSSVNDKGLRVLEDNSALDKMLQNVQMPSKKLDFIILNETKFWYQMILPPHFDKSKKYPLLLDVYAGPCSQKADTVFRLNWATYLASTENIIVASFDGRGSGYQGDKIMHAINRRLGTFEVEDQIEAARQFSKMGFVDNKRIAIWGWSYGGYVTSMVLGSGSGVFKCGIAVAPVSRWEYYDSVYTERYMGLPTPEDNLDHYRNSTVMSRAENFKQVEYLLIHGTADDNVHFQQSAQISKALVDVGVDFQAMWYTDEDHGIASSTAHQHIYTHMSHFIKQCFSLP
Source text: as §1

DPPIV [2] = biological target: T1, DPPIV; test: DPP-IV-inhibiting activity, fluorescence assay with Ala-Pro-AMC substrate; format: biochemical; conditions: pH7.5, 37° C.
Protocol: Determination of DPP-IV-inhibiting activity could be performed by common methods. DPP-IV was pure enzyme expressed by using baculovirus expressing system and purified. […] The reaction system was carried out in buffer of pH7.5 and the substrate was alanine-proline-7-amino-4-methylcoumarin (Ala-Pro-AMC).
DPP-IV could degradate substrate Ala-Pro-AMC to give product AMC. […] The DPP-IV activity could be determined by dynamic detecting the increasing speed of fluorescence value at 460 nm.
Thoroughly mixed test compounds, enzyme and reaction buffer, preincubated the mixture for 15 minutes at 37° C. and then primed reaction by adding substrate, successfully detecting fluorescence value at 460 nm for 5 minutes. […] All final reaction volumes were 100 μL. Each concentration of each sample consisted of parallel wells in triplate.
Firstly, calculated the increment of fluorescence intensity per unit time during the initial speed of enzyme (unit: RFU/sec) which can be used to express initial speed, then calculated activity percentage of sample in each concentration group as follows: Activity %=vsample/vDMSO*100%
Wherein, vsample represents initial speed of sample in each concentration group, vDMSO represents initial speed of DMSO group.
Logarithm concentration was plotted versus activity percentage, and then calculated fitting curve by nonlinear regression from which IC50 value was calculated.

DPP9 = DPP9 (Homo sapiens (Human), UniProt Q86TI2); test: Selectivity panel, recombinant dipeptidase inhibition (fluorescence substrate): DPP9; format: biochemical; conditions: for Selective ratio DPP9/DPPIV: ratio of IC50 values; for IC50: recombinant DPP9
Sequence of DPP9 (Q86TI2 whole entry): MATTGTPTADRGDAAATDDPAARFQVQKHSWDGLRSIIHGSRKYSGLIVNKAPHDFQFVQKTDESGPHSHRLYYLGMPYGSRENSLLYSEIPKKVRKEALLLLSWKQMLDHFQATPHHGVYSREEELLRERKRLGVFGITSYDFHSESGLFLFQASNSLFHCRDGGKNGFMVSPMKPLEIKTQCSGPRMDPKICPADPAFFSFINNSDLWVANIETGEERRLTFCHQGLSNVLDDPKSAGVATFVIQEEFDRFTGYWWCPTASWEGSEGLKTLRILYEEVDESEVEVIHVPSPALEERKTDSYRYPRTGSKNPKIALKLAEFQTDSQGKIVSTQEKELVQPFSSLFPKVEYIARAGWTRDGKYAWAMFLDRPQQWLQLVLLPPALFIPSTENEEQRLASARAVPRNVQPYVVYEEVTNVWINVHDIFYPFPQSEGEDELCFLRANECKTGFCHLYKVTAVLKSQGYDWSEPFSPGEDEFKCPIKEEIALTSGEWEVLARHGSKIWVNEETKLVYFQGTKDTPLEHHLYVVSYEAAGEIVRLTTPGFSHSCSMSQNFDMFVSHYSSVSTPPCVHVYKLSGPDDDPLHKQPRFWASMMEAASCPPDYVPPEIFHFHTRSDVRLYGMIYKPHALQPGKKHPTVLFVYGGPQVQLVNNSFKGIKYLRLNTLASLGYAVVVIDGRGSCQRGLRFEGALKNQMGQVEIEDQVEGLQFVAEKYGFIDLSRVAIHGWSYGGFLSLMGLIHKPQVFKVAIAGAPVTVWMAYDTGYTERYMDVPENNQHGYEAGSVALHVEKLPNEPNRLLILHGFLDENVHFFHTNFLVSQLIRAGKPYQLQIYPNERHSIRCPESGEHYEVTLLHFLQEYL
Source text: as §1

DPP8 = DPP8 (Homo sapiens (Human), UniProt Q6V1X1); test: Selectivity panel, recombinant dipeptidase inhibition (fluorescence substrate): DPP8; format: biochemical; conditions: for Selective ratio DPP8/DPPIV: ratio of IC50 values; for IC50: recombinant DPP8
Sequence of DPP8 (Q6V1X1 whole entry): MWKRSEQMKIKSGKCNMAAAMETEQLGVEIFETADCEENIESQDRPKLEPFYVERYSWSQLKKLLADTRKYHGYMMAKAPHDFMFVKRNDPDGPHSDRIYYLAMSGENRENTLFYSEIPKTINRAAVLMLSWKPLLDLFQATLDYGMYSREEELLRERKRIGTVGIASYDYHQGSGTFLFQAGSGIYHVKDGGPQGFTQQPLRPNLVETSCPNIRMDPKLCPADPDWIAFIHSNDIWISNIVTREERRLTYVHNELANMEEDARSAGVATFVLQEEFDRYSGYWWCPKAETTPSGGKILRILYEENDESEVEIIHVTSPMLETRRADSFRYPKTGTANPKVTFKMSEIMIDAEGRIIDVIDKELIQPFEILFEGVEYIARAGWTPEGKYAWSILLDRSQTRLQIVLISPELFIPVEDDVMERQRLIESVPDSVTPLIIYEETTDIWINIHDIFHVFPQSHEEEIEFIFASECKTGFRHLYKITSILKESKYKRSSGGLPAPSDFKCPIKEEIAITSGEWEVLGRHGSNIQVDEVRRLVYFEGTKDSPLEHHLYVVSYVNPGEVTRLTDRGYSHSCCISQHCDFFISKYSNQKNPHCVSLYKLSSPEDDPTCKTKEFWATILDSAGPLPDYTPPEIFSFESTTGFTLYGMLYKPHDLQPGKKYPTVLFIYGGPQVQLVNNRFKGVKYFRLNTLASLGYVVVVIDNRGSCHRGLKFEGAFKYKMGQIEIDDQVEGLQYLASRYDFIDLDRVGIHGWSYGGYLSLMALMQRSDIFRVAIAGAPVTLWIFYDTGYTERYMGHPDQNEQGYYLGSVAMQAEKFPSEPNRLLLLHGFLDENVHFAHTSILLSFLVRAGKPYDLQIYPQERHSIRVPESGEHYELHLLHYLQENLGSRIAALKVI
Source text: as §1

normal ICR mice = test: In vivo glucose-decreasing activity, oral glucose load in normal mice; conditions: 3.0 mg/kg gavage; for AUC (area under curve of blood glucose): glucose load 60 min post-administration, x ± s
Protocol: 70 male clean-grade ICR mice with 20.0-24.0 g body weight were provided by Experimental Animal Center of Zhejiang University. Production license number of experimental animal: SCXK[zhe]2007-0039; Use license number of experimental animal: SYXK(zhe)2007-0098.
Feeding condition for animals: met the requirement for experimental facility of SPF grade animals, temperature at 20-25° C., humidity of 0-70%, illuminating condition was alternately 12 hours of brightness and 12 hours of darkness, ventilation rate was 10-20 times per hour, free access to water (city drinking water), illumination was 12 h/12 h of alternating light and dark at day and night respectively.
50 male clean-grade mice passing quarantine with 20.0-24.0 g body weight were randomly divided into 5 groups which included solvent control group, model group, compound dose group (3.0 mg/kg) respectively, 10 per group.
Mice in each group were fasted for 12 hours and then 0.08 mL blood was drawn by cutting tail. Serum was collected and used to determinating fasting blood glucose value. After drawing blood, mice in each dose group were administrated by gavage with different drug solution of corresponding dose and mice in solvent control and model group were administrated with distilled water of equal volume, wherein administration volume was 0.2 mL/10 g. 0.08 mL blood was drawn from each group at 60 minutes post-administration to determine the blood glucose value at 60 minutes post-administration. After drawing blood, […] glucose was administrated by gavage to each group except for solvent control group, wherein administration volume was 0.2 mL/10 g, and then blood was drawn at 20 min, 40 min, 60 min, 120 min after administration of glucose respectively, blood was centrifugated at 6000 rpm for 10 min to separate serum for determining the blood glucose value at each time point, area under curve of blood glucose was calculated on the basis of blood glucose concentration.

[3] = In vivo pharmacokinetic study in rats (gavage); design: species or system SD rats; conditions: 20 mg/kg gavage
Protocol: 12 healthy, male SD rats with 200-220 g body weight were assigned randomly to 3 groups (4 in each group), particular assignment was shown in the table below:
Rats were fasted for 12 h before test with free access to water and uniformly fed at 2 h after administration.
Time points of blood collecting and samples treatment: 0.3 mL blood was drawn through mice post-glomus venous plexus at 0.25, 0.5, 1.0, 2.0, 3.0, 4.0, 5.0, 7.0, 9.0 and 24 hours post-administration, placed in heparinized test tube, centrifuged at 3000 rpm/min for 10 minutes, separated plasma, frozen in refrigerator at −20° C. Unchanged drug concentration in plasma was determined by liquid chromatography-tandem mass spectrometry method.

[4] = male, SD, rat, plasma, po, read-out: Cmax
[5] = male, SD, rat, plasma, po, read-out: Tmax

SMILES	IC50 (FAP)	IC50 (DPPIV [1])	IC50 (DPPIV [2])	Selective ratio DPP9/DPPIV (DPP9)	IC50 (DPP9)	Selective ratio DPP8/DPPIV (DPP8)	IC50 (DPP8)	inhibition rate (blood glucose AUC) (normal ICR mice)	AUC (area under curve of blood glucose) (normal ICR mice)	AUC0−t [3]	other results
CS(=O)(=O)c1cccc(C(=O)N2C[C@@H]3CCN(C(=O)C[C@H](N)Cc4cc(F)c(F)cc4F)[C@@H]3C2)c1.O=C(O)/C=C/C(=O)O [Compound 26, (R)-3-amino-1-((3aS,6aS)-5-(3-mesylbenzoyl)-hexahydropyrrolo[3,4-b]pyrrol-1(2H)-yl)-4-(2,4,5-trifluorophenyl)butan-1-one fumarate]	11300 ± 4020 nM	2.6 nM	2.61 ± 0.46 nM	1311	3450 ± 3470 nM	6057	15800 ± 7650 nM				
CC(C)(C)C(=O)N1C[C@@H]2CCN(C(=O)C[C@H](N)Cc3cc(F)c(F)cc3F)[C@@H]2C1 [Compound 20, (R)-3-amino-1-((3aS,6aS)-5-(tertvaleryl)-hexahydropyrrolo[3,4-b]pyrrol-1(2H)-yl)-4-(2,4,5-trifluorophenyl)butan-1-one fumarate]	15900 ± 4720 nM	23 nM	23.2 ± 2.24 nM	241	5550 ± 2520 nM	907	20900 ± 5630 nM	38.3%	215 ± 44 mmol·min/L	2076 ngh/mL	half-life ([3]; male, SD, rat, plasma, po): 2.45 h; Cmax [3, 4]: 917 ng/mL; Tmax [3, 5]: 0.81 h
N#CC1(C(=O)N2C[C@@H]3CCN(C(=O)C[C@H](N)Cc4cc(F)c(F)cc4F)[C@@H]3C2)CC1 [Compound 17, (R)-3-amino-1-((3aS,6aS)-5-(1-cyanocyclopropylcarbonyl)-hexahydropyrrolo[3,4-b]pyrrol-1(2H)-yl)-4-(2,4,5-trifluorophenyl)butan-1-one fumarate]			11.5 nM								
N[C@@H](CC(=O)N1CCn2c(nnc2C(F)(F)F)C1)Cc1cc(F)c(F)cc1F [Sitagliptin, reference compound]								31.1%	240 ± 24 mmol·min/L	1655 ngh/mL	Cmax [3]: 477 ng/mL; T1/2 [3]: 2.11 h; Tmax [3]: 0.44 h
CN(C)C(=O)N1C[C@@H]2CCN(C(=O)C[C@H](N)Cc3cc(F)c(F)cc3F)[C@@H]2C1 [Compound 3, (R)-3-amino-1-((3aS,6aS)-5-(N,N-dimethylaminoformyl)-hexahydropyrrolo[3,4-b]pyrrol-1(2H)-yl)-4-(2,4,5-trifluorophenyl)butane-1-one fumarate]			17.7 ± 3.77 nM								
CC(C)(F)C(=O)N1C[C@@H]2CCN(C(=O)C[C@H](N)Cc3cc(F)c(F)cc3F)[C@@H]2C1 [Compound 8, (R)-3-amino-1-((3aS,6aS)-5-(2-fluoro-2-methylpropionyl)-hexahydropyrrolo[3,4-b]pyrrol-1(2H)-yl)-4-(2,4,5-trifluorophenyl)butan-1-onefumarate]	13500 ± 280 nM	11 nM	11.2 ± 3.76 nM	322	3550 ± 1020 nM	1602	17600 ± 3610 nM	63.0%	129 ± 41 mmol·min/L	2921 ngh/mL	half-life ([3]; male, SD, rat, plasma, po): 2.29 h; Cmax [3, 4]: 933 ng/mL; Tmax [3, 5]: 1 h
N[C@@H](CC(=O)N1CC[C@H]2CN(C(=O)C3CC3)C[C@H]21)Cc1cc(F)c(F)cc1F [Compound 12, (R)-3-amino-1-((3aS,6aS)-5-(cyclopropylcarbonyl)-hexahydropyrrolo[3,4-b]pyrrol-1(2H)-yl)-4-(2,4,5-trifluorophenyl)butan-1-one fumarate]			25.9 ± 3.91 nM								
CN1C[C@@H]2CCN(C(=O)C[C@H](N)Cc3cc(F)c(F)cc3F)[C@@H]2C1 [Compound 1, (R)-3-amino-1-((3aS,6aS)-hexahydro-5-methylpyrrolo[3,4-b]pyrrol-1(2H)-yl)-4-(2,4,5-trifluorophenyl)butan-1-one fumarate]			22.8 ± 1.99 nM								
